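Each compound was tested at five concentrations against cells in 96-well plates for 48 hours. GI50: concentration for 50% inhibition of growth.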 Active and inactive are the calls of the source. No stated cut-off is given here; in the data, active = GI50 up to about 1.1 µM and inactive = higher.
Experiments:
Assay in all cases: inhibition of tumour cell growth, NCI panel, 48 h
A549 = test system: A549
CCRF-CEM = test system: CCRF-CEM
EKVX = test system: EKVX
HOP-92 = test system: HOP-92
HT-29 = test system: HT-29
LOX IMVI = test system: LOX IMVI
MOLT-4 = test system: MOLT-4
NCI-H522 = test system: NCI-H522
OVCAR-4 = test system: OVCAR-4
SK-MEL-28 = test system: SK-MEL-28
SK-MEL-2 = test system: SK-MEL-2
U-251 = test system: U-251
UACC-257 = test system: UACC-257
UO-31 = test system: UO-31
CAKI-1 = test system: CAKI-1
RPMI-8226 = test system: RPMI-8226
COLO 205 = test system: COLO 205

Measured: GI50

O=C(NCc1ccncc1)C1COc2cc(-c3cc(=O)c4ccccc4o3)ccc2O1 (centres undefined)
inactive: A549 > 100 µM | CCRF-CEM > 100 µM | EKVX > 100 µM | HOP-92 > 100 µM | HT-29 > 100 µM | LOX IMVI > 100 µM | MOLT-4 > 100 µM | NCI-H522 > 100 µM | OVCAR-4 > 100 µM | SK-MEL-28 > 100 µM | SK-MEL-2 > 100 µM | U-251 > 100 µM | UACC-257 > 100 µM | UO-31 > 100 µM

CCC1CN2CCc3cc(OC)c(OC)cc3C2CC1CC1c2cc(OC)c(OC)cc2CCN1C(=O)C1CCCN1C(=O)OCc1ccccc1 (centres undefined)
inactive: A549 18.9 µM | CAKI-1 20.3 µM | EKVX 22.7 µM | HOP-92 10.2 µM | HT-29 14.1 µM | LOX IMVI 15 µM | OVCAR-4 12.2 µM | RPMI-8226 15 µM | SK-MEL-28 16.9 µM | SK-MEL-2 17.2 µM | U-251 15 µM | UACC-257 16.9 µM | UO-31 12.7 µM

CC(=O)Nc1ccccc1-c1nc2ccccc2nc1-c1ccccc1
inactive: A549 > 100 µM | CAKI-1 > 100 µM | CCRF-CEM > 100 µM | COLO 205 > 100 µM | EKVX > 100 µM | HOP-92 > 100 µM | HT-29 > 100 µM | MOLT-4 > 100 µM | OVCAR-4 > 100 µM | RPMI-8226 > 100 µM | SK-MEL-28 > 100 µM | SK-MEL-2 > 100 µM | U-251 > 100 µM | UACC-257 > 100 µM | UO-31 54.7 µM

CC(C)C1CC2C(=O)N(c3ccccc3)C(=O)C2c2[nH]c3ccccc3c21 (centres undefined)
inactive: A549 14.4 µM | CAKI-1 5.68 µM | CCRF-CEM 14 µM | EKVX 61.7 µM | HT-29 22.9 µM | MOLT-4 11.2 µM | OVCAR-4 2.32 µM | RPMI-8226 19.8 µM | SK-MEL-28 23.4 µM | SK-MEL-2 35.2 µM | U-251 12 µM | UACC-257 34.6 µM | UO-31 17.3 µM

CCOC(=O)C1CCCCN1C(=O)OCc1ccccc1 (centres undefined)
inactive: A549 > 100 µM | CAKI-1 > 100 µM | CCRF-CEM > 100 µM | EKVX > 100 µM | HT-29 > 100 µM | MOLT-4 > 100 µM | NCI-H522 > 100 µM | OVCAR-4 > 100 µM | SK-MEL-28 > 100 µM | SK-MEL-2 > 100 µM | U-251 86.1 µM | UACC-257 > 100 µM | UO-31 99.8 µM

CCN(CC)C(=O)c1c(Cl)cc(N(CC)CC)oc1=O
inactive: A549 > 100 µM | CCRF-CEM > 100 µM | COLO 205 > 100 µM | EKVX > 100 µM | HOP-92 > 100 µM | HT-29 > 100 µM | LOX IMVI > 100 µM | MOLT-4 > 100 µM | NCI-H522 > 100 µM | OVCAR-4 > 100 µM | RPMI-8226 > 100 µM | SK-MEL-28 > 100 µM | SK-MEL-2 > 100 µM | U-251 > 100 µM | UACC-257 > 100 µM | UO-31 > 100 µM

COc1ccc(C(=O)C(c2ccc(OC)cc2)C2(O)C(=O)Nc3c2ccc(Cl)c3C)cc1 (centres undefined)
inactive: A549 > 100 µM | CCRF-CEM > 100 µM | COLO 205 > 100 µM | EKVX > 100 µM | HT-29 > 100 µM | LOX IMVI 91.2 µM | MOLT-4 > 100 µM | NCI-H522 > 100 µM | OVCAR-4 > 100 µM | RPMI-8226 > 100 µM | SK-MEL-28 > 100 µM | SK-MEL-2 > 100 µM | U-251 > 100 µM | UACC-257 92.9 µM | UO-31 64.6 µM

CCOc1ccccc1NC(=O)C(=O)CC(=O)c1sc(Nc2nnc(-c3ccc(Cl)c(Cl)c3)o2)nc1C
inactive: A549 > 100 µM | CAKI-1 > 100 µM | CCRF-CEM 40.8 µM | COLO 205 > 100 µM | EKVX > 100 µM | HOP-92 > 100 µM | HT-29 > 100 µM | LOX IMVI 31.8 µM | MOLT-4 > 100 µM | OVCAR-4 > 100 µM | RPMI-8226 64.3 µM | SK-MEL-28 > 100 µM | SK-MEL-2 > 100 µM | U-251 18.8 µM | UACC-257 98.9 µM | UO-31 > 100 µM

CC(C)(C)c1ccc2c(c1)S(=O)(=O)Nc1ccccc1NS(=O)(=O)c1cc(C(C)(C)C)ccc1OCCOCCOCCO2
inactive: A549 > 100 µM | CAKI-1 97.9 µM | CCRF-CEM > 100 µM | COLO 205 > 100 µM | EKVX 71.8 µM | HOP-92 85.3 µM | HT-29 > 100 µM | LOX IMVI > 100 µM | MOLT-4 > 100 µM | OVCAR-4 20.9 µM | SK-MEL-28 > 100 µM | SK-MEL-2 > 100 µM | U-251 88.5 µM | UACC-257 > 100 µM | UO-31 > 100 µM

CC(=O)OCC1OC(n2c(-c3ccc(N)cc3)cc(-c3ccco3)c(C#N)c2=O)C(OC(C)=O)C(OC(C)=O)C1OC(C)=O (centres undefined)
inactive: A549 15.6 µM | CAKI-1 > 50 µM | COLO 205 > 50 µM | EKVX > 50 µM | HOP-92 4.08 µM | HT-29 > 50 µM | LOX IMVI 8.04 µM | MOLT-4 > 50 µM | NCI-H522 8.17 µM | OVCAR-4 38.5 µM | SK-MEL-28 > 50 µM | SK-MEL-2 22.4 µM | U-251 7.06 µM | UACC-257 > 50 µM | UO-31 > 50 µM

N#CC(/C(=N\NC(=O)c1ccncc1)C(=O)Nc1ccc([N+](=O)[O-])cc1[N+](=O)[O-])c1nc(-c2ccc(Br)cc2)cs1 (centres undefined)
inactive: A549 > 100 µM | CAKI-1 > 100 µM | CCRF-CEM > 100 µM | COLO 205 > 100 µM | EKVX > 100 µM | LOX IMVI > 100 µM | MOLT-4 > 100 µM | OVCAR-4 > 100 µM | RPMI-8226 > 100 µM | SK-MEL-28 > 100 µM | SK-MEL-2 > 100 µM | U-251 > 100 µM | UACC-257 > 100 µM | UO-31 > 100 µM

COC1(OC)CC2C(=O)N(Cc3ccccc3)C1C=C2S(=O)(=O)c1ccccc1 (centres undefined)
inactive: A549 21.9 µM | CCRF-CEM 14.9 µM | COLO 205 10.2 µM | EKVX 15.6 µM | HOP-92 24.1 µM | HT-29 18.5 µM | LOX IMVI 13.4 µM | MOLT-4 16.5 µM | NCI-H522 13.9 µM | OVCAR-4 20.5 µM | RPMI-8226 21 µM | SK-MEL-28 17.5 µM | U-251 15.5 µM | UACC-257 16.9 µM | UO-31 25 µM

CCSC(SCC)c1cc2c(cc1Br)OCO2
inactive: A549 28.6 µM | CCRF-CEM 16.6 µM | COLO 205 15.2 µM | EKVX 31.8 µM | HOP-92 17.8 µM | HT-29 16.8 µM | LOX IMVI 16.2 µM | MOLT-4 11.9 µM | NCI-H522 24 µM | OVCAR-4 57.8 µM | RPMI-8226 19.4 µM | SK-MEL-28 33.2 µM | SK-MEL-2 18.9 µM | U-251 17 µM | UO-31 20.8 µM
